# In US20040013649A1, “Cancer vaccines and methods of using the same” (Inex Pharmaceuticals Corporation, priority 2002, published 2004):
# Entries after “also recorded” stand apart in the source; their conditions may differ.
# Key:
# [1] = system: leukocytes bearing the activation marker CD69; experiment: in vivo stimulation of the CD69 marker after injection; set-up: species or system ICR mice; conditions: lipid encapsulated oligonucleotide; 10 mg/kg ODN2, 20 mg/kg ODN1; 16 and 24 hours after injection
# Method: (§1) CD69 is a cell activation marker, which quantifies the activation of NK cells, B cells and monocytes. Expression of CD69 on NK cells indicates cell activation and production of IFN-γ, which is important to inducing a Th-1 immune response. Free and encapsulated ODN1 and 2 were tested in vitro and in vivo for their ability to induce CD69 expression. A dose of 0.1 mg/ml of ODN2 and 10 mg/ml ODN1 were used in vitro and 10 mg/kg of ODN2 and 20 mg/kg of ODN1 in vivo. Each oligonucleotide was encapsulated in a lipid particle composed of POPC:CHOL:DODMA:PEGDMG in a ratio of 20:45:25:10.
# When the same oligonucleotides were tested in vivo, however, surprising results were obtained. FIG. 2 illustrates that in vivo treatment of ICR mice by injection with encapsulated or free oligonucleotides produces results that are contrary to those obtained in vitro.
# [2] = system: EG.7 Ova expressing tumor cells; experiment: prophylactic anti-tumor efficacy, EG7-OVA tumor model, q7d×3; assay type: in vivo, C57BI/6 mice
# Method: Efficacy studies. E.G7-OVA or EL-4 thymoma cell lines were used throughout the study. These cells were cultured in vitro according to established methods. […] Tumor measurements were made by repeated perpendicular measurements of tumor dimensions and using the formula: […]
# Anti-tumor efficacy induced by subcutaneous immunization was assessed in C57BI/6 (5 animals per group) in a prophylactic immunization model. Mice were immunized subcutaneously with 3 injections on a q7d×3 dosing regimen on Days 0, 7 and 14 at a dose of 100 μg oligonucleotide and 20 μg of OVA antigen dose. […] Mice were monitored 3 times weekly to assess tumor growth and weight gain. Control mice were injected with one of PBS or HBS and […] of OVA antigen on the same schedule described above. Oligonucleotides were encapsulated in a lipid particle having a lipid composition of one of POPC: CHOL: DODAP:PEGCer14 or DSPC: CHOL: DODAP:PEGCer14 each in a ratio of 25:45:20:10. All comparisons of methylated and unmethylated oligonucleotides were done using like lipid particles. Results from these efficacy experiments are detailed in FIGS. 12-15, 18-21, and 25-28. Day 0 on each of the Figures is the day each animal was challenged with the tumor.
# [3] = system: dendritic cells; experiment: expansion of dendritic cells (CD11c, DEC205) in spleen, blood and lymph nodes; assay type: in vivo, ICR mice; conditions: lipid encapsulated; single i.v. injection 20 mg/kg; versus PBS control = 100%
# Method: ICR mice were immunized with a single intravenous injection of encapsulated oligonucleotides at a dose of 20 mg/kg and the control ICR mouse was injected with PBS. […] Each of these markers are specific to dendritic cells though they may represent different cell sub-populations. In each of FIGS. 4 and 5 the control was plotted as equivalent to 100% and the effect of ODN1m for each backbone configuration was plotted as a percentage of that control.
# [4] = system: B16 cells; experiment: TRP-2 peptide vaccination, B16 pulmonary metastases; assay type: in vivo, mice; conditions: SC weekly ×3, then B16 cells IV
# Method: TRP-2 and gp100 studies were conducted using the B16/BL6 murine melanoma model. B16 cells (1.0×105) were injected IV in a volume of […]. Typically, animals were vaccinated weekly for 2-3 injections and B16 cells were then administered 1-2 days after the final vaccination. Animals were terminated between days 14-18 post-B16 injection, lungs were removed, and metastases were counted using a stereomicroscope.
# TRP-2 peptide was mixed with various adjuvant formulations and was administered SC weekly (×3), followed by an IV administration of B16 cells, which aggressively seed to the lung to form numerous micro metastases. […] CFA is a balanced Th1/Th2 and gave a modest response (mean=46), consistent with the E.G7-OVA studies.
# [5] = system: IL-12, IL-6, IFN-γ and MCP-1; experiment: plasma cytokine levels after i.v. injection; assay type: in vivo, ICR mice; conditions: for stimulation of plasma IL-6, IL-12, IFN-γ and MCP-1: encapsulated in DSPC:Chol:DODAP:PEG-CER14 20:45:25:10, i.v.
# Method: As noted above, with non-lipid encapsulated oligonucleotides the backbone is traditionally modified so as to reduce molecular degradation by nucleases. However, on encapsulation, such a modification is no longer required to prevent degradation. To establish the effect of a different phosphate backbone on cytokine stimulation induced by lipid encapsulation, mice were injected with oligonucleotides having both PO and PS backbones, and cytokine stimulation was measured over a series of points in time (as shown in FIG. 6 and 7B) and over a sliding dosage scale as shown in FIG. 7A. In this experiment ICR mice were injected i.v. with a 20 mg ODN/kg dose of free PO ODN1, encapsulated PO-ODN1 and encapsulated PS-ODN1. […] Cytokine stimulation is generally indicative of a cellular immune response as is a chemokine response in MCP-1. Oligonucleotides were encapsulated in a lipid particle composed of DSPC:Chol:DODAP:PEG-CER14 in a ratio of 20:45:25:10.
# [6] = system: leukocytes bearing the activation marker CD69; experiment: in vitro stimulation of CD69 on leukocytes in mouse whole blood; assay type: cell-based; conditions: oligonucleotide encapsulated in POPC:CHOL:DODMA:PEGDMG 20:45:25:10
# Method: as §1
# FIG. 1 illustrates the in vitro stimulation of leukocytes bearing the activation marker CD69 from treating mouse whole blood with free oligonucleotides and encapsulated oligonucleoties, specifically ODN1 and 2. When mouse whole blood was treated in vitro with free oligonucleotides there was a dose responsive increase in the amount of CD69 positive B-cells, monocytes and to some extent, NK cells, according to the amount of free oligonucleotide used 15 hours after treatment. […] However, when these same oligonucleotides were encapsulated in a lipid vesicle, the in vitro stimulation of CD69 production on these same cell types was reduced or abolished altogether.
# [7] = system: E.G7-OVA; experiment: prophylactic efficacy of OVA / OVA257-264 vaccination, E.G7-OVA model; assay type: in vivo, C57/BL6 mice; set-up: anti-tumor activity / antigen specific efficacy / adjuvant activity following prophylactic vaccination: dose or concentration left out as unconfirmed; conditions: for efficacy of ODN sequences: LNA (encapsulated) forms, FIG. 35; for antigen specific efficacy / adjuvant activity following prophylactic vaccination: free or encapsulated ODN 1 mixed with OVA or OVA257-264, SC; for prophylactic effect on tumor growth: OVA257-264 peptide, LNA containing ODN 30 (PO), SC for 2 weeks, FIG. 31; for anti-tumor activity: antigen alone, once weekly vaccination, 2 injections
# Method: Vaccinations. B6 mice were vaccinated subcutaneously (SC) with […] per injection. Dosing schedules were either q7dx2 or q4dx4 and are indicated in the individual figure legends. CFA mixtures were very viscous and had to be given with a larger gauge syringe. For humoral studies, a prime (day 0) and boost (day 14) strategy was used and blood samples were collected at various times by tail nicking.
# Efficacy studies. E.G7-OVA or EL-4 thymoma cell lines were used throughout the study. These cells were cultured in vitro according to established methods. For tumor studies, 2.5×106 E.G7-OVA cells were injected subcutaneously in […] of PBS containing 1% FCS. Tumor measurements were made by repeated perpendicular measurements of tumor dimensions and using the formula: […]
# Full-length OVA and the immunodominant cytotoxic T lymphocyte (CTL) peptide epitope (OVA257-264) were used to evaluate cell mediated immune responses and the prophylactic and therapeutic efficacy of OVA vaccination against the E.G7-OVA transfected cell line, using LNA both as an adjuvant and as the basis for a cancer vaccine formulation. LNA formulations for this experiment were prepared using DSPC:Chol:DODAP:PEGCer14 at a ration of 25:45:20:10
# The anti-tumor activity of OVA and OVA257-264 were examined against the murine thymoma cell line, E.G7-OVA, implanted subcutaneously (SC) in C57/BL6 mice. […] Given the activity observed with the protein or peptide alone, this dose and schedule represents a useful model to evaluate adjuvants designed to boost the immune response against OVA and/or OVA257-264.
# To examine LNA formulations as adjuvants, the impact of three variables were evaluated on vaccination and efficacy in the prophylactic E.G7-OVA model: (1) the activity of free vs. encapsulated ODN 1, (2) phosphodiester (PO) vs phosphorothioate (PS) ODN, and (3) full-length OVA protein vs single-epitope peptide OVA257-264 (FIGS. 30A and B). In this set of studies, free and encapsulated ODN 1 was simply mixed with antigen and administered SC near the nape of the neck. ODN and antigen doses in these studies were […], respectively.
# [8] = system: E.G7-OVA; experiment: therapeutic efficacy of OVA vaccination, established E.G7-OVA tumors; assay type: in vivo, B6 mice; conditions: treatment q4d×4 once tumors had reached ~250 mm3
# Description: Currently, the clinical objective is to generate a therapeutic host immune responses that can reduce the progression of established cancers. To evaluate the effect of vaccination on therapeutic efficacy in the E.G7-OVA model, B6 mice were implanted with E.G7-OVA cells and were subsequently treated with OVA, OVA +ODN 1 or OVA +LNA/ODN 1 on a q4d×4 schedule once the tumors had reached ˜250 mm3.
# [9] = TRP-2 peptide alone or mixed with free ODN or other adjuvant
# [10] = encapsulated ODN (LNA) mixed with TRP-2 peptide
# [11] = encapsulated form versus free at the same dose
molecule,measurement,setting,value
"ODN1: 5′-TAACGTTGAGGGGCAT-3, SEQ ID NO: 2, human c-myc (tested as both phosphodiester and phosphorothioate backbone forms, lipid-encapsulated, further chemistry not given here)",stimulation of the CD69 marker in vivo,[1],able to stimulate production of CD69 on NK cells
same,reduction in tumor growth,"[2]; free ODN, 100 μg ODN + 20 μg OVA s.c. q7d×3, tumor challenge Day 21",showed a greater reduction in tumor growth than their methylated counterparts
same,reduction in tumor growth,"[2]; lipid encapsulated ODN, PO backbone, 100 μg ODN + 20 μg OVA s.c. q7d×3",lost its efficacy
same,number of animals remaining in the study,"[2]; lipid encapsulated ODN, FIG. 19B",essentially identical throughout the study
same,expansion of CD11c positive dendritic cells,[3],stimulated the expansion of CD11c positive cells in spleen and whole blood
same,expansion of DEC205 positive dendritic cells,[3],"stimulate the expansion of DEC205 positive cells in spleen, whole blood and lymph node"
same,mean number of metastases,[4]; [9],37
same,mean number of metastases,[4]; [10],6
same,late IFN-γ peak,"[5]; encapsulated PS oligonucleotides, 6 days after treatment",produced a strong IFN-γ peak; also recorded: produced an IFN-gamma peak
same,"stimulation of plasma IL-6, IL-12, IFN-γ and MCP-1",[5],increased IL-12 induction
same,"stimulation of CD69 positive B-cells, monocytes and NK cells",[6],reduced the stimulation of CD69 on NK cells below the control level
same,efficacy of ODN sequences,[7],strongest responses
same,antigen specific efficacy / adjuvant activity following prophylactic vaccination,[7],encapsulation of ODN 1 resulted in increased antigen specific efficacy
"ODN14: 5′-AACC GTT GAG GGG CAT-3′, SEQ ID NO: 14, human c-myc (AACCGTTGAGGGGCAT; tested as both phosphodiester and phosphorothioate backbone forms, lipid-encapsulated, further chemistry not given here)",increase in IFN-γ,[5]; [11],20 fold
same,increase in IL-6,[5]; [11],1000 fold
same,increase in peak plasma IL-12,[5]; [11],2.5 fold
same,"stimulation of plasma IL-6, IL-12, IFN-γ and MCP-1",[5],increased IL-12 induction
"ODN 3: 5′-TAAGCATACGGGGTGT-3, SEQ ID NO: 3; non-CpG ODN control sequence for ODN 1 (chemistry not given here)",mean number of metastases,[4]; [9],83
same,mean number of metastases,[4]; [10],23
"ODN 29: 5′-CAACGTTATGGGGAGA-3′, SEQ ID NO: 29; non-antisense version of ODN 1 (chemistry not given here)",efficacy of ODN sequences,[7],strongest responses
"TRP-2 peptide: immunodominant MHC class I peptide epitope of TRP-2, VYDFFVWL [reference compound]",mean number of metastases,[4]; [9],82
mOVA: acylated OVA257-264 peptide; modified peptide with stearoyl group at the N-terminus [reference compound],prophylactic effect on tumor growth,[7],no prophylactic effect
same,anti-tumor activity,[7],no anti-tumor activity was observed
"pOVA: immunodominant CTL peptide epitope OVA257-264 (ESIINFEK; UniProt P01012 257-264, looked up, fragment) [reference compound]",prophylactic effect on tumor growth,[7],no prophylactic effect
same,anti-tumor activity,[7],no anti-tumor activity was observed
"OVA: Hen egg albumin (ovalbumin), full-length protein, model tumor-associated antigen (protein, UniProt P01012 1-386, looked up, full-length, Hen egg albumin (ovalbumin), full-length protein, model tumor-associated antigen) MGSIGAASMEFCFDVFKELKVHHANENIFYCPIAIMSALAMVYLGAKDSTRTQINKVVRFDKLPGFGDSIEAQCGTSVNVHSSLRDILNQITKPNDVYSFSLASRLYAEERYPILPEYLQCVKELYRGGLEPINFQTAADQARELINSWVESQTNGIIRNVLQPSSVDSQTAMVLVNAIVFKGLWEKAFKDEDTQAMPFRVTEQESKPVQMMYQIGLFRVASMASEKMKILELPFASGTMSMLVLLPDEVSGLEQLESIINFEKLTEWTSSNVMEERKIKVYLPRMKMEEKYNLTSVLMAMGITDVFSSSANLSGISSAESLKISQAVHAAHAEINEAGREVVGSAEAGVDAASVSEEFRADHPFLFCIKHIATNAVLFFGRCVSP",tumor growth of established tumors,[8],no delay in tumor growth
same,anti-tumor activity,[7],Anti-tumor activity was observed
same,antigen specific efficacy / adjuvant activity following prophylactic vaccination,[7],dramatically improved immune responses and efficacy
